Reference: BindingDB's records for doi:10.1021/cb8001039 (National Cancer Institute-Bethesda, 2008)

Tests used:
Assay in all cases: FRET-Based RNase H Assay
Settings in all cases: pH 8; 20 °C
Ribonuclease H1 = target: T1, Ribonuclease H1 (Homo sapiens, UniProt O60930)
T1 sequence (O60930 whole entry): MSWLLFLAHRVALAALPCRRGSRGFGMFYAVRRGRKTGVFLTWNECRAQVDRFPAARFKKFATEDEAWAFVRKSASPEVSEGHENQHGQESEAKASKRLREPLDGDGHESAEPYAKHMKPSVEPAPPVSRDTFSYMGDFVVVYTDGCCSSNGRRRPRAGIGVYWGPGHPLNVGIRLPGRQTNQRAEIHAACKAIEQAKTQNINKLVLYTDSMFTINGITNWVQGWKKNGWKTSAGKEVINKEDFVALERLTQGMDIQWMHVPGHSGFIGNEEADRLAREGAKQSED
Protocol: (§1) RNaseH assays were performed using an 18-nucleotide 3-fluorescein-labeled RNA annealed to a complementary 18-nucleotide 5-dabcyl conjugated DNA. The increase in fluorescence as a result of RNase H hydrolysis was monitored with a Spectramax Gemini EM fluorescence spectrometer. Data were analyzed using the instrument manufacturer SoftMax pro software. To determine IC50 values, the slope of the curve representing the time dependent increase in fluorescence was determined at 10 min, when initial rate conditions are met and substrate depletion is not significant. The slope values were plotted against the logarithm of the inhibitor concentrations, and IC50 values were determined using SigmaPlot software.

[1] = target: T2, Gag-Pol polyprotein [600-1029,C879S]/[600-1159,C879S] (Human immunodeficiency virus 1, UniProt P03366, C879S)
T2 construct: 600-1029; 600-1159
Protocol: as §1

[2] = target: T3, Gag-Pol polyprotein [613-1167,R896S,E946D,S1117V]/[618-1043,R896S,E946D] (Human immunodeficiency virus 2, UniProt P04584, E946D/R896S/S1117V)
T3 construct: 613-1167; 618-1043
Protocol: as §1

Ribonuclease HI = target: T4, Ribonuclease HI (Escherichia coli (strain K12), UniProt P0A7Y4)
T4 sequence (P0A7Y4 whole entry): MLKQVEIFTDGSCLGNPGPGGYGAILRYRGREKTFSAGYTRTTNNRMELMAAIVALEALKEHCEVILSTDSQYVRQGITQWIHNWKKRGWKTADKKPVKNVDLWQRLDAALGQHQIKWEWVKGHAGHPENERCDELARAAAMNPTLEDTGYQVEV
Protocol: as §1

T3 sequence (P04584 613-1167, looked up, stated change not applied): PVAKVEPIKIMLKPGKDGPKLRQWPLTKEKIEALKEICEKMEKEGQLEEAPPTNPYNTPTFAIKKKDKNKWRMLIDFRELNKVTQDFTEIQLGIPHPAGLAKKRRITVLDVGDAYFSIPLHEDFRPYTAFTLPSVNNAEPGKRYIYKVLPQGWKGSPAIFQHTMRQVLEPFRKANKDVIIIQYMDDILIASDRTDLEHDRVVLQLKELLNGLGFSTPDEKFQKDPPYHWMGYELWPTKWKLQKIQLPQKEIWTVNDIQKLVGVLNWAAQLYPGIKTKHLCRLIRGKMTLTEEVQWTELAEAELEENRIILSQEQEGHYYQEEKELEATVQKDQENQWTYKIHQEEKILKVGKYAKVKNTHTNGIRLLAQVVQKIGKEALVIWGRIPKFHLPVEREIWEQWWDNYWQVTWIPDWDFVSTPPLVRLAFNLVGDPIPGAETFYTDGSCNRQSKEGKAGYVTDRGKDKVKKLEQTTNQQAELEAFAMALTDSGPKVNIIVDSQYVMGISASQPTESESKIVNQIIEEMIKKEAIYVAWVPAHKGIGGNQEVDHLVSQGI
T3 sequence (P04584 618-1043, looked up, stated change not applied): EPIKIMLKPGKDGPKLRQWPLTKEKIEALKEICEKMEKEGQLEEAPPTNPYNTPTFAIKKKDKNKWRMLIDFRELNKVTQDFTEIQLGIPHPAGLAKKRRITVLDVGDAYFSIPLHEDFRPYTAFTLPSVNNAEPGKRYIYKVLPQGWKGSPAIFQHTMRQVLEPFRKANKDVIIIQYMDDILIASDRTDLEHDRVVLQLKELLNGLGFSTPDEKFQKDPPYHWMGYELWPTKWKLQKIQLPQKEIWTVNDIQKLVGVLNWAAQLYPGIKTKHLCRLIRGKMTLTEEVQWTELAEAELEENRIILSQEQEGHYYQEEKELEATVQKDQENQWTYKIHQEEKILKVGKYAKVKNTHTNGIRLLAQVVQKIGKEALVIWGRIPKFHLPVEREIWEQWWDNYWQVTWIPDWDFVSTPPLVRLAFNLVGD

With `Cc1sc(NC(=O)c2ccco2)c(C(N)=O)c1C` [vinylogous urea, NSC727448] the IC50 (Ribonuclease H1) was 29 µM, the IC50 [1] was 3.2 µM and the IC50 [2] was 5 µM. It also gave an IC50 (Ribonuclease HI) of 73 µM.

Work on `NC(=O)c1c(N)sc2c1CCCCC2` [SMR000066289] yielded an IC50 (Ribonuclease H1) of 10.6 µM, an IC50 [1] of 2 µM and an IC50 [2] of 2.5 µM. It also gave an IC50 (Ribonuclease HI) of 100 µM.
